Measurements as given in patent US12077503B2, “Substituted cyclic amides and their use as herbicides” (FMC CORPORATION, priority 2015, dated 2024).

Legend:
Format in all cases: in vivo
[1] = test system: ryegrass, Italian (Italian ryegrass, Lolium multiflorum); assay: Test A postemergence; conditions: postemergence; for Ryegrass, Italian plant response rating: 125 g ai/ha, visual injury rating on 0 to 100 scale (0 no effect, 100 complete control), approx. 10 d; for Plant response rating, Ryegrass, Italian: 500 g ai/ha, 0 to 100 scale, 0 no effect, 100 complete control
How it was run: (§1)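 Treatment is preemergence as a directed soil spray after planting, or postemergence at the one- to two-leaf stage, with test chemical in a non-phytotoxic solvent mixture plus surfactant. Plants stay in the greenhouse about 10 d before visual injury scoring on a 0 to 100 scale versus untreated controls.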

[2] = test system: blackgrass (Alopecurus myosuroides); assay: Test A postemergence; conditions: postemergence; for Blackgrass plant response rating: 125 g ai/ha, visual injury rating on 0 to 100 scale (0 no effect, 100 complete control), approx. 10 d; for Plant response rating, Blackgrass: 500 g ai/ha, 0 to 100 scale, 0 no effect, 100 complete control
How it was run: as §1

[3] = test system: wheat (Triticum aestivum); assay: Test A postemergence; conditions: postemergence; for Wheat plant response rating: 125 g ai/ha, visual injury rating on 0 to 100 scale (0 no effect, 100 complete control), approx. 10 d; for Plant response rating, Wheat: 500 g ai/ha, 0 to 100 scale, 0 no effect, 100 complete control
How it was run: as §1

Kochia (Kochia scoparia) [4] = assay: Test A postemergence; conditions: postemergence; for Kochia plant response rating: 125 g ai/ha, visual injury rating on 0 to 100 scale (0 no effect, 100 complete control), approx. 10 d; for Plant response rating, Kochia: 500 g ai/ha, 0 to 100 scale, 0 no effect, 100 complete control
How it was run: as §1

[5] = test system: barnyardgrass (Echinochloa crus-galli); assay: Test A postemergence; conditions: postemergence; for Barnyardgrass plant response rating: 125 g ai/ha, visual injury rating on 0 to 100 scale (0 no effect, 100 complete control), approx. 10 d; for Plant response rating, Barnyardgrass: 500 g ai/ha, 0 to 100 scale, 0 no effect, 100 complete control
How it was run: as §1

corn (Zea mays) = assay: Test A postemergence; conditions: postemergence; for Corn plant response rating: 125 g ai/ha, visual injury rating on 0 to 100 scale (0 no effect, 100 complete control), approx. 10 d; for Plant response rating, Corn: 500 g ai/ha, 0 to 100 scale, 0 no effect, 100 complete control
How it was run: as §1

[6] = test system: ragweed (common ragweed, Ambrosia elatior); assay: Test A postemergence; conditions: postemergence; for Ragweed plant response rating: 125 g ai/ha, visual injury rating on 0 to 100 scale (0 no effect, 100 complete control), approx. 10 d; for Plant response rating, Ragweed: 500 g ai/ha, 0 to 100 scale, 0 no effect, 100 complete control
How it was run: as §1

[7] = test system: pigweed (Amaranthus retroflexus); assay: Test A postemergence; conditions: postemergence; for Pigweed plant response rating: 125 g ai/ha, visual injury rating on 0 to 100 scale (0 no effect, 100 complete control), approx. 10 d; for Plant response rating, Pigweed: 500 g ai/ha, 0 to 100 scale, 0 no effect, 100 complete control
How it was run: as §1

[8] = test system: Galium (catchweed bedstraw, Galium aparine); assay: Test A postemergence; conditions: postemergence; for Galium plant response rating: 125 g ai/ha, visual injury rating on 0 to 100 scale (0 no effect, 100 complete control), approx. 10 d; for Plant response rating, Galium: 500 g ai/ha, 0 to 100 scale, 0 no effect, 100 complete control
How it was run: as §1

[9] = test system: giant foxtail (Setaria faberii); assay: Test A postemergence; conditions: postemergence; for Foxtail, Giant plant response rating: 125 g ai/ha, visual injury rating on 0 to 100 scale (0 no effect, 100 complete control), approx. 10 d; for Plant response rating, Foxtail, Giant: 500 g ai/ha, 0 to 100 scale, 0 no effect, 100 complete control
How it was run: as §1

[10] = test system: ryegrass, Italian (Italian ryegrass, Lolium multiflorum); assay: Test A preemergence; conditions: for Plant response rating, Ryegrass, Italian: 125 g ai/ha, preemergence, 0 to 100 scale (0 no effect, 100 complete control); for Ryegrass, Italian plant response rating (0 to 100 scale, 0 is no effect, 100 is complete control): Preemergence, 500 g ai/ha, visual injury approx. 10 d
How it was run: as §1

Kochia (Kochia scoparia) [11] = assay: Test A preemergence; conditions: for Plant response rating, Kochia: 125 g ai/ha, preemergence, 0 to 100 scale (0 no effect, 100 complete control); for Kochia plant response rating (0 to 100 scale, 0 is no effect, 100 is complete control): Preemergence, 500 g ai/ha, visual injury approx. 10 d
How it was run: as §1

[12] = test system: barnyardgrass (Echinochloa crus-galli); assay: Test A preemergence; conditions: for Plant response rating, Barnyardgrass: 125 g ai/ha, preemergence, 0 to 100 scale (0 no effect, 100 complete control); for Barnyardgrass plant response rating (0 to 100 scale, 0 is no effect, 100 is complete control): Preemergence, 500 g ai/ha, visual injury approx. 10 d
How it was run: as §1

[13] = test system: ragweed (common ragweed, Ambrosia elatior); assay: Test A preemergence; conditions: for Plant response rating, Ragweed: 125 g ai/ha, preemergence, 0 to 100 scale (0 no effect, 100 complete control); for Ragweed plant response rating (0 to 100 scale, 0 is no effect, 100 is complete control): Preemergence, 500 g ai/ha, visual injury approx. 10 d
How it was run: as §1

[14] = test system: pigweed (Amaranthus retroflexus); assay: Test A preemergence; conditions: for Plant response rating, Pigweed: 125 g ai/ha, preemergence, 0 to 100 scale (0 no effect, 100 complete control); for Pigweed plant response rating (0 to 100 scale, 0 is no effect, 100 is complete control): Preemergence, 500 g ai/ha, visual injury approx. 10 d
[15] = test system: giant foxtail (Setaria faberii); assay: Test A preemergence; conditions: for Plant response rating, Foxtail, Giant: 125 g ai/ha, preemergence, 0 to 100 scale (0 no effect, 100 complete control); for Foxtail, Giant plant response rating (0 to 100 scale, 0 is no effect, 100 is complete control): Preemergence, 500 g ai/ha, visual injury approx. 10 d
How it was run: as §1

[16] = test system: sedge, umbrella (small-flower umbrella sedge, Cyperus difformis); assay: Test B flooded paddy test; conditions: Flood, 250 g ai/ha; 0 to 100 scale where 0 is no effect and 100 is complete control; 13 to 15 d
How it was run: (§2)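 Visual ratings (0 none to 100 complete control) are relative to untreated plants, taken 13–15 d after treatment in a greenhouse. Test material went straight into floodwater standing 3 cm above the soil, kept constant, on plants at the 2-leaf stage.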

[17] = test system: barnyardgrass (Echinochloa crus-galli); assay: Test B flooded paddy test; conditions: Flood, 250 g ai/ha; 0 to 100 scale where 0 is no effect and 100 is complete control; 13 to 15 d
How it was run: as §2

rice (Oryra sativa) = assay: Test B flooded paddy test; conditions: Flood, 250 g ai/ha; 0 to 100 scale where 0 is no effect and 100 is complete control; 13 to 15 d
How it was run: as §2

[18] = test system: ducksalad (Heteranthera limosa); assay: Test B flooded paddy test; conditions: Flood, 250 g ai/ha; 0 to 100 scale where 0 is no effect and 100 is complete control; 13 to 15 d
How it was run: as §2

Row | Compound | Ryegrass, Italian plant response rating [1] | Plant response rating, Ryegrass, Italian [1] | Blackgrass plant response rating [2] | Plant response rating, Blackgrass [2] | Wheat plant response rating [3] | Plant response rating, Wheat [3] | Kochia plant response rating (Kochia (Kochia scoparia) [4]) | Plant response rating, Kochia (Kochia (Kochia scoparia) [4]) | Barnyardgrass plant response rating [5] | Plant response rating, Barnyardgrass [5] | Corn plant response rating (corn (Zea mays)) | Plant response rating, Corn (corn (Zea mays)) | Ragweed plant response rating [6] | Plant response rating, Ragweed [6] | Pigweed plant response rating [7] | Plant response rating, Pigweed [7] | Galium plant response rating [8] | Plant response rating, Galium [8] | Foxtail, Giant plant response rating [9] | Plant response rating, Foxtail, Giant [9] | further results
1 | CC(=O)Oc1cccc(C2CNC(=O)C2C(=O)Nc2cccc(F)c2F)c1 (stereo not drawn) [Compound 432] | 0 | 20 | 0 | 0 | 0 | 0 | 0 | 0 | 20 | 30 | 0 | 0 | 0 | 0 | 0 | 0 | 0 | 0 | 40 | 30 | Plant response rating, Ryegrass, Italian [10]: 0; Ryegrass, Italian plant response rating (0 to 100 scale, 0 is no effect, 100 is complete control) [10]: 0; Plant response rating, Kochia (Kochia (Kochia scoparia) [11]): 0; Kochia plant response rating (0 to 100 scale, 0 is no effect, 100 is complete control) (Kochia (Kochia scoparia) [11]): 0; Plant response rating, Barnyardgrass [12]: 30; Barnyardgrass plant response rating (0 to 100 scale, 0 is no effect, 100 is complete control) [12]: 40; Plant response rating, Ragweed [13]: 0; Ragweed plant response rating (0 to 100 scale, 0 is no effect, 100 is complete control) [13]: 0; Plant response rating, Pigweed [14]: 0; Pigweed plant response rating (0 to 100 scale, 0 is no effect, 100 is complete control) [14]: 0; Plant response rating, Foxtail, Giant [15]: 0; Foxtail, Giant plant response rating (0 to 100 scale, 0 is no effect, 100 is complete control) [15]: 0; Plant response rating, Sedge, Umbrella [16]: 0; Plant response rating, Barnyardgrass [17]: 20; Plant response rating, Rice (rice (Oryra sativa)): 15; Plant response rating, Ducksalad [18]: 0
2 | CN1CC(c2ccc(Cl)cc2)C(C(=O)Nc2ccccc2S(C)(=O)=O)C1=O (stereo not drawn) [Compound 435] | 40 | 40 | 30 | 50 | 0 | 60 | 20 | 50 | 80 | 90 | 0 | 20 | 40 | 60 | 20 | 50 | 50 | 60 | 80 | 80 | Plant response rating, Ryegrass, Italian [10]: 0; Ryegrass, Italian plant response rating (0 to 100 scale, 0 is no effect, 100 is complete control) [10]: 20; Plant response rating, Kochia (Kochia (Kochia scoparia) [11]): 60; Kochia plant response rating (0 to 100 scale, 0 is no effect, 100 is complete control) (Kochia (Kochia scoparia) [11]): 80; Plant response rating, Barnyardgrass [12]: 80; Barnyardgrass plant response rating (0 to 100 scale, 0 is no effect, 100 is complete control) [12]: 90; Plant response rating, Ragweed [13]: 20; Ragweed plant response rating (0 to 100 scale, 0 is no effect, 100 is complete control) [13]: 70; Plant response rating, Pigweed [14]: 60; Pigweed plant response rating (0 to 100 scale, 0 is no effect, 100 is complete control) [14]: 80; Plant response rating, Foxtail, Giant [15]: 90; Foxtail, Giant plant response rating (0 to 100 scale, 0 is no effect, 100 is complete control) [15]: 90; Plant response rating, Sedge, Umbrella [16]: 0; Plant response rating, Barnyardgrass [17]: 60; Plant response rating, Rice (rice (Oryra sativa)): 0; Plant response rating, Ducksalad [18]: 90
3 | CN1CC(c2ccc(Cl)cc2)C(C(=O)Nc2ccc(F)cc2F)C1=O (stereo not drawn) [Compound 436] | 20 | 50 | 30 | 40 | 20 | 40 | 40 | 70 | 90 | 90 | 0 | 40 | 0 | 20 | 20 | 60 | 60 | 60 | 80 | 90 | Plant response rating, Ryegrass, Italian [10]: 40; Ryegrass, Italian plant response rating (0 to 100 scale, 0 is no effect, 100 is complete control) [10]: 60; Plant response rating, Kochia (Kochia (Kochia scoparia) [11]): 70; Kochia plant response rating (0 to 100 scale, 0 is no effect, 100 is complete control) (Kochia (Kochia scoparia) [11]): 80; Plant response rating, Barnyardgrass [12]: 90; Barnyardgrass plant response rating (0 to 100 scale, 0 is no effect, 100 is complete control) [12]: 100; Plant response rating, Ragweed [13]: 0; Ragweed plant response rating (0 to 100 scale, 0 is no effect, 100 is complete control) [13]: 50; Plant response rating, Pigweed [14]: 80; Pigweed plant response rating (0 to 100 scale, 0 is no effect, 100 is complete control) [14]: 90; Plant response rating, Foxtail, Giant [15]: 90; Foxtail, Giant plant response rating (0 to 100 scale, 0 is no effect, 100 is complete control) [15]: 100; Plant response rating, Sedge, Umbrella [16]: 0; Plant response rating, Barnyardgrass [17]: 60; Plant response rating, Rice (rice (Oryra sativa)): 0; Plant response rating, Ducksalad [18]: 100
